Source: patent US20230355645A1, “PHARMACEUTICAL COMPOSITION” (priority 2020, published 2023)

Columns and labels:
Caco-2 cells = assay: MTT test, toxicity of CBD towards Caco-2; type: cell-based, human; conditions: CBD 3 and 5 μmol/l, 24 h incubation
Method: (§1) Human Caco-2 intestinal cells and Ishikawa endometrial cells were used in an in vitro study of the effect of cannabidiol (CBD) and sodium hyaluronate. In the first phase of the experiment, the safe concentration of CBD was determined based on the results of MTT measurements, a test for the reduction of 3-(4,5-dimethylthiazol-2-yl)-2,5-diphenyltetrazolium bromide (MTT) to the corresponding formazan. The test was performed according to M. D. Maines, L. G. Costa, D. J. Reed, et al. Current protocols in toxicology. New York: John Wiley & Sons. (1998).
(§2) Cells seeded in a 96-well plate at a concentration of 3×10^4 cells/ml, 100 μl/well, which were allowed to adhere for 24 hours, were subsequently incubated for 24 hours with CBD in a concentration range of 100 to 0.78 μmol/l dissolved in serum-free culture medium containing MEM (Minimum Essential Medium Eagle) supplemented by 2 mM glutamine, 1% NEAA (Non essential Amino Acid), and penicillin 100 IU/ml and streptomycin 100 ug/ml. At the end of the incubation period, 100 μl of MTT mixture (0.5 mg/mL in serum-free culture medium) was added for the period of 2 hours. At the end of the incubation period and aspiration of the MTT mixture, 100 μl of DMSO with NH3 (1%, v/v) were added. The absorbance was measured at 540 nm (INFINITE M200 PRO Tecan, Schoeller). […]

[1] = test system: IL-6 production by Ishikawa cells; assay: Production of IL-6 by Ishikawa cells following incubation with LPS (ELISA); type: cell-based, human; conditions: after LPS induction, both doses (3 and 5 μmol/l)
Method: (§3) Cells (Caco-2, Ishikawa) were seeded in 6-well plates in culture medium containing MEM (Minimum Essential Medium Eagle) supplemented by 2 mM glutamine, 1% NEAA (Non essential Amino Acid), 10% FBS (Fetal Bovine Serum), penicillin 100 IU/ml and streptomycin 100 ug/ml and allowed to adhere for a minimum of 24 hours and then allowed to grow to confluence. They were then rinsed with PBS (2 ml) and treated with LPS (E. coli) 2 μg/ml in serum-free culture medium, 2 ml per well 3 times after 3 hours. After the last 3 hours of incubation, the test substances (CBD, CBD+HA in serum-free culture medium) were added to the cells and the samples were incubated for another 22 hours. The culture medium was then removed, frozen at −80° C. for downstream determination of pro-inflammatory cytokines (IL-6 and IL-8) by ELISA (Human ELISA Development Kit, Cat. Nos. 900-K16 and 900-K18, PeproTech, Baria, Czech Republic). The results are expressed relative to a control K (cells cultured only with serum-free culture medium), as a percentage of the control, expressed as mean±SEM. The measurement was performed in three independent experiments. KL are cells cultured with LPS. Testing was performed in triplicates.

[2] = especially in solution by exposure to light, atmospheric oxygen and acidic pH; cited from earlier work
[3] = test system: IL-6 production by Caco-2 cells; assay: Production of IL-6 by Caco-2 cells following incubation with LPS (ELISA); type: cell-based, human; conditions: Caco-2, after LPS induction, both doses (3 and 5 μmol/l)
Method: as §3

[4] = test system: IL-8 production by Caco-2 cells; assay: Production of IL-8 by Caco-2 cells following incubation with LPS (ELISA); type: cell-based, human; conditions: Caco-2, after LPS induction, higher dose of CBD
Method: as §3

[5] = cited from earlier work
[6] = test system: Ishikawa endometrial cells; assay: MTT test, toxicity of CBD towards Ishikawa; type: cell-based, human; conditions: CBD 3 and 5 μmol/l, 24 h incubation
Method: as §1, §2

[7] = test system: IL-8 production by Ishikawa cells; assay: Production of IL-8 by Ishikawa cells following incubation with LPS (ELISA); type: cell-based, human; conditions: after LPS induction, both doses of CBD
Method: as §3

[8] = test system: IL-6 production by Caco-2 cells; conditions: Caco-2 model, Couch et al. Clin. Sci. 2017; cited from earlier work
[9] = test system: Balb/c 3T3-L1 mouse fibroblasts; assay: Cytotoxicity assay, neutral red incorporation; type: cell-based; conditions: 24 h
Method: Balb/c 3T3-L1 mouse fibroblasts (ECACC 86052701) were used in the cytotoxicity assay. The cells were cultured in D-MEM medium (Dulbecco's modification of Eagle's essential medium, Lonza) containing antibiotics (penicillin 100 IU/ml, streptomycin 100 ug/ml), enriched with 10% inactivated calf serum, pH 7.2.
Suppositories prepared according to Example 1 were tested. The positive control (PK) was sodium lauryl sulfate (SLS), the cell control was serum-free culture medium.
The suppository extract was prepared in the ratio of 0.2 g of sample per 1 ml of extracting agent (serum-free D-MEM) according to ČSN EN ISO 10993-12 (2012). The extraction was performed for 24 hours at 37° C., in a closed culture flask under aseptic conditions according to ČSN EN ISO 10993-5 (2012). The resulting 100% extract was further diluted with serum-free culture medium.
Flat bottom tissue culture plates of 8×12 wells were used to culture the cells. The cells were suspended at a concentration of 10^5 cells in 1 ml of the culture medium, inoculating 0.1 ml of the suspension into 1 well. Culture conditions 37° C., 7.5% CO2. Pre-cultivation to obtain a cell culture monolayer was performed 24 hours before exposure to the test material. The cultures were established in quadruplets for the test extracts and for the controls. After 24 hours of precultivation, the culture medium and 0.2 ml of the extract from the test sample, or its serial dilution, respectively. This was followed by culture for 24 hours at 37° C., 7.5% CO2 and staining with neutral red (0.2 ml of neutral red solution per well, incubation for 3 hours, ethanol/acetic acid fixation solution). After completion of the culture, cytotoxicity was determined quantitatively (fluorimetrically) based on the incorporation of neutral red as a vital dye.
The fluorimetric method for determining cytotoxicity is based on the incorporation of a vital dye into living cells and the detection of fluorescence in an excitation (530 nm) and emission filter (590 nm) system using cold light. The degree of cytotoxicity is expressed in % of the detected fluorescence in the culture containing the test extract relative to the control culture in the absence of the test extract. Fluorescence is detected in FSU units of fluorescence intensity. For quantification, the viability of the culture is calculated as follows:
culture viability (%)=(average FSU of the test sample−average FSU of the blank)/(average FSU of the control−average FSU of the blank)
The mean fluorescence values for each group represent the average fluorescence value from all four wells after subtracting the average fluorescence value of the eight wells with fixation solution (blank). The control is serum-free culture medium.

human volunteers = conditions: in vivo

For `C=C(C)[C@@H]1CCC(C)=C[C@H]1c1c(O)cc(CCCCC)cc1O` [CBD, Cannabidiol], the “toxicity by MTT values” (Caco-2 cells) is listed as “sub-toxic”, the IL-6 levels [1] is listed as “significant decrease” and the stability [2] is listed as “prone to degradation”. For the same compound, the IL-6 levels [3] was “significant decrease”, the IL-8 concentration [4] was “at the same level” and the “log P” value [5] was 6-7. The “toxicity by MTT values” [6] was “sub-toxic”, the IL-8 levels [7] was “decrease” and the “increase in IL-6 concentration compared to the original value after induction of inflammation” value [8] was “more than 70%”.
For `CCCCCCCCCCCCOS(=O)(=O)[O-].[Na+]` [PK-SLS, sodium lauryl sulfate], the “Mean fluorescence (FSU)” value ([9]; Test 1, 1 μg/ml) was 2743.4 FSU, the “Relative to control %” value ([9]; Test 1, 1 μg/ml) was 98.8% and the “Mean fluorescence (FSU)” value ([9]; Test 1, 10 μg/ml) was 891.1 FSU. The “Relative to control %” value ([9]; Test 1, 10 μg/ml) was 32.1%, the “Mean fluorescence (FSU)” value ([9]; Test 1, 20 μg/ml) was 113.9 FSU and the “Relative to control %” value ([9]; Test 1, 20 μg/ml) was 16.0%. For the same compound, the “Mean fluorescence (FSU)” value ([9]; Test 2, 1 μg/ml) was 3187.8 FSU, the “Relative to control %” value ([9]; Test 2, 1 μg/ml) was 98.9% and the “Mean fluorescence (FSU)” value ([9]; Test 2, 10 μg/ml) was 542.5 FSU. For the same compound, the “Relative to control %” value ([9]; Test 2, 10 μg/ml) was 16.8%, the “Mean fluorescence (FSU)” value ([9]; Test 2, 20 μg/ml) was 326.3 FSU and the “Relative to control %” value ([9]; Test 2, 20 μg/ml) was 10.1%. For the same compound, the “Total number of reactions, Reaction yes/no” value (human volunteers; human) was 30/30 and the Reaction yes/no (human volunteers) was “YES”.
